Consider one compound from article PMC12587574, “Mass balance, pharmacokinetics, metabolism, and excretion of radiolabeled acoziborole, a potential novel treatment for human African trypanosomiasis, following single microtracer oral dose to humans” (Antimicrobial Agents and Chemotherapy, 2025).

A short description of data set [1]: Total radioactivity in blood and plasma by accelerator mass spectrometry, phase I mass balance study. The format is in vivo, human. Conditions: 960 mg single oral dose. How it is done: Venous blood samples were collected via an indwelling cannula or by venepuncture. A 12 mL sample was taken into heparinized glass tube and chilled on ice immediately before IP administration and 3 mL samples were taken at 1, 4, 9, 12, 24, 48, 72, 96, 120, 144, 168, and 240 h and on Days 15, 31, 59, 89, and 119 after IP administration. The first 0.5 mL of blood withdrawn via cannula was discarded. One aliquot of heparinized whole blood (1 mL) per time point was stored at or below −20°C for total radioactivity analysis. The remaining blood was centrifuged, and the harvested plasma was stored at approximately −20°C for bioanalysis or transferred (exactly 1 mL) into polypropylene tubes pre-filled with 5 µL formic acid. One plasma sample (0.5 mL) was used for metabolite profiling while another (0.5 mL) was used for parent drug and SCYX-3109 metabolite analysis. The remaining plasma was used for total radioactivity analysis.
TNO (Leiden, the Netherlands) performed the analysis of total radioactivity and the metabolite profiling and identification. All blood, plasma, urine, and fecal homogenate samples were analyzed for total radioactivity by accelerator mass spectrometry (AMS). AMS analysis was performed on a 1 MV multi-element AMS, model 4110 Bo, high voltage engineering (software: AMS 155), using Australian National University (ANU) sucrose-8542 (C12H22O11) with a certified ^14C/^12C isotope ratio ([10]) as the system suitability test sample and [^14C]-paracetamol as an AMS quality check sample.
For each (diluted) sample, 5 µL blood, 5 µL plasma, 15 µL urine, or 30 mg fecal homogenate prepared in 1% CMC solution (1% CMC solution:feces ratio of 4:1) were transferred to tin foil cups. The samples were dried under a stream of nitrogen and subsequently placed in the elemental analyzer (EA, Vario Micro, Elementar, Germany), which acts as an autosampler and combustion device for the AMS. Single samples of blood, plasma, and urine were analyzed. Fecal homogenates were analyzed in triplicate, and the averaged value was reported. Total radioactivity in plasma and blood was expressed as ng equivalents (Eq) of acoziborole/mL. The LLOQ was 47.3 ngEq/mL in plasma (1.51 mBq/mL), 165.4 ngEq/mL in blood (5.28 mBq/mL), 33.8 ngEq/mL in urine (1.08 mBq/mL), and 87.1 ngEq/mL in feces (2.78 mBq/mL).
Blood-to-plasma ratio was calculated based on Cmax and AUC values. For total radioactivity excreted in urine, feces, and both combined, the following parameters were calculated: total amount of total radioactivity excreted over the time interval between t1 and t2 (Aet1−t2), Aet1−t2 expressed as a percentage of the radioactive dose administered (%Aet1−t2), CumAe, and Cum%Ae. For CumAe calculation, the recovery of total radioactivity during WinNonlin time intervals in which urine and feces were not collected was estimated using the area under the excretion rate-time curve from the end of the preceding collection interval to the start of the subsequent collection interval.

Data set [2] is described as follows: Urinary excretion / renal clearance of acoziborole and SCYX-3109 by LC-MS/MS. The format is in vivo. Conditions: male, human, urine and plasma; CumAe0–240h/AUC0–240h; mean ± SD; 960 mg single oral dose of acoziborole; read-out: renal clearance CLr0–240h (converted). On the procedure: Urine samples were collected before IP administration (single urine void) and then during intervals of 0–6, 6–12, 12–24, 24–48, 48–72, 72–96, 96–120, 120–168, 168–192, 192–216, and 216–240 h post-dose and for the additional 48-h collection period starting on Day 15 post-dose, that is, 336–384 h. Samples were acidified with citric acid to avoid acoziborole degradation and were refrigerated until the end of the block collection periods. The total weight and volume of urine were then recorded. At the end of each collection period, two aliquots of acidified urine (20 mL) were taken from the sample and stored in polypropylene tubes at −20°C until further analysis for total radioactivity. Two aliquots of 1 mL acidified urine were collected into tubes containing bovine serum albumin in aqueous solution (to avoid non-specific adsorption of acoziborole) and NaCl for acoziborole and SCYX-3109 assays. […]
SGS Belgium (Wavre, Belgium) performed the analysis to determine acoziborole and SCYX-3109 concentrations, using validated bioanalytical assays with liquid chromatography with tandem mass spectrometry (LC-MS/MS) with a Supelco Ascentis Express C8, 2.7 µm, 50 × 2.1 mm I.D. separation column. In plasma, the lower limit of quantification (LLOQ) was 25 ng/mL for acoziborole and 10 ng/mL for SCYX-3109. […]

Data set [3] in a line: Distribution study of [14C]-acoziborole in Sprague-Dawley rats. The format is in vivo. Conditions: 10 mg/kg (200 µCi/kg).
Another data set addresses T1, CYP2C8 (Homo sapiens, UniProt P10632).
T1 construct: purchased
T1 sequence (P10632 1-490): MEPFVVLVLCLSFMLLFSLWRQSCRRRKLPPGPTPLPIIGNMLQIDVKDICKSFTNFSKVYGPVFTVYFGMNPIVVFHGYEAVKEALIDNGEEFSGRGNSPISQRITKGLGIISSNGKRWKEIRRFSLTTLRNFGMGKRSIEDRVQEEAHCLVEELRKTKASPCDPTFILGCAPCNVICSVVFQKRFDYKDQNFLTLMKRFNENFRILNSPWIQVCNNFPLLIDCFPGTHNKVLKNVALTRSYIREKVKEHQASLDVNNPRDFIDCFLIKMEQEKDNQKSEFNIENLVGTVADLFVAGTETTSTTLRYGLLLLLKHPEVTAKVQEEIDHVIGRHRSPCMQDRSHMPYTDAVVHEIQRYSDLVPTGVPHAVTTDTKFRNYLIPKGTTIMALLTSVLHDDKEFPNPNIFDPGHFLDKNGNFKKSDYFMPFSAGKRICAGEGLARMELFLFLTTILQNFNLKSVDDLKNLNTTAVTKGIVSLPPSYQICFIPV
As to the kind of experiment: Incubation with CYP450 recombinant enzymes (Bactosomes) and NADPH. It counts as in vitro ADME. The settings on record: 1 µM.

In another data set the target is T2, CYP3A4 (Homo sapiens, UniProt P08684).
T2 construct: purchased
T2 sequence (P08684 whole entry): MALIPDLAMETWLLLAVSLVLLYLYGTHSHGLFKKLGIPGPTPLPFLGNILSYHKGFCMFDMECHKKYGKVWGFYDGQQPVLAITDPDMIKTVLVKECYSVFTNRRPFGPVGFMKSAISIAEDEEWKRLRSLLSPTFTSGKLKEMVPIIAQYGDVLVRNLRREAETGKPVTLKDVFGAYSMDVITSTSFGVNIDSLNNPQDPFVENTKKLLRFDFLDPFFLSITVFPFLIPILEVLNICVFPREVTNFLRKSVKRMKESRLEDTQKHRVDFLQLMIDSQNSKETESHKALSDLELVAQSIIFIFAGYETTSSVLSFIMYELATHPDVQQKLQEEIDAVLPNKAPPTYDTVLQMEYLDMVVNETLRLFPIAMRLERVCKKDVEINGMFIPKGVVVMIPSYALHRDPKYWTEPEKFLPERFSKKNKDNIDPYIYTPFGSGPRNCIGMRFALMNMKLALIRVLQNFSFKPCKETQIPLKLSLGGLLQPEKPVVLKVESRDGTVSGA
The description is as above. It counts as in vitro ADME. Conditions: 1 µM.

Details of data set [4]: method as in PMID 21738803. The settings on record: rats; cited from earlier work.
Another data set deals with MDCK-MDR1 cell monolayer. Conditions: cited from earlier work.
Setting [5] is: N = 6, mean ± SD, listed as [^14C]-acoziborole.

Where “and” joins values, the source holds several entries; their conditions need not be identical. Identical values can stand only once.

As to `CC1(C)OB(O)c2cc(NC(=O)c3ccc(F)cc3C(F)(F)F)ccc21` [acoziborole], the “mean whole blood to plasma total radioactivity ratios (Cmax and AUC0–240h), interpretation” value in data set [1] is recorded as “no affinity for blood cells”. Further, the “median tmax, total radioactivity in plasma” value in data set [1] (N = 6) turned out to be 48 h. In addition, in data set [1] (N = 6, mean ± SD), the “AUC0–240h, total radioactivity, whole blood” value is 2,250.737 ± 182.816 µg-eq*h/mL; the “AUC0–t, total radioactivity, plasma” value is reported as 5,403.286 ± 1,561.755 µg-eq*h/mL; the “AUC0–t, total radioactivity, whole blood” value is recorded as 3,556.202 ± 3,236.208 µg-eq*h/mL; the “AUC0–∞, total radioactivity, plasma” value is 5,785.324 ± 1,105.726 µg-eq*h/mL. In data set [1] (N = 6, mean ± SD), the “AUC0–∞, total radioactivity, whole blood” value is 5,382.336 ± 2,473.408 µg-eq*h/mL; the “tmax, total radioactivity, plasma” value worked out at 56.0 ± 12.4 h; the “tmax, total radioactivity, whole blood” value is recorded as 68.1 ± 9.9 h. For the same compound, in data set [1] (setting [5]), the “AUC0–240h, total radioactivity, plasma” value was 2,371.786 ± 255.572 µg-eq*h/mL; the “t1/2, total radioactivity, plasma” value was 278.3 h and 278 h and 278.3 ± 47.4 h; the “t1/2, total radioactivity, whole blood” value is 239.2 h and 239.2 ± 65.7 h. Further, the “Cmax, total radioactivity, whole blood” value in data set [1] (healthy males, N = 6, mean ± SD) came to 12.052 ± 1.129 µg-eq/mL. In addition, in data set [1] (healthy males, N = 6, mean ± SD, listed as [^14C]-acoziborole), the “Cmax, total radioactivity, plasma” value is 13.13 µg-eq/mL and 13.130 ± 1.776 µg-eq/mL. Also, the “mean whole blood to plasma total radioactivity ratios (Cmax and AUC0–240h), interpretation” value in data set [1] (listed as [^14C]-acoziborole) was “equivalent distribution between blood cells and plasma”. Also, in data set [2], the CL renal was 0.0333 mL/min. Moreover, in data set [3] (female rats), the “radioactivity collected in feces during 7 days, share of total radioactivity” value is over 73%; the “radioactivity in combined feces and urine during 7 days, share of total radioactivity” value was over 86%. In addition, in data set [3] (male rats), the “radioactivity collected in feces during 7 days, share of total radioactivity” value is given as “over 66%”; the “radioactivity in combined feces and urine during 7 days, share of total radioactivity” value is “over 85%”. In addition, at CYP2C8, the “metabolism by recombinant CYP2C8” value is on record as “metabolized by”. The “metabolism by recombinant CYP3A4” value on CYP3A4 is on record as “metabolized by”. For the same compound, the “brain to plasma AUC0–24h ratio” value in data set [4] is recorded as 44%. Moreover, the apparent permeability in the data set on MDCK-MDR1 cell monolayer is recorded as 776 nm/s.
